# Measurements: patent US11976083B2, “Inhibitors of peptidylarginine deiminases” (Gilead Sciences, Inc., priority 2020, dated 2024)
# Target: T1, human PAD4 (Homo sapiens, UniProt Q9UM07)
# T1 construct: human PAD4 (NM_012387), A2-P663, was PCR amplified; His-SUMO (N, cleaved yes); made in house; host or cells: E. coli BL21(DE3)
# Assay: In vitro PAD4 BAEE biochemical assay
# Details: BAEE substrate 3 mM, 5 nM PAD4, 2 mM calcium chloride; geometric mean of multiple experiments
# Outline: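 Assay was run at 25 °C using 3 mM BAEE and 5 nM human PAD4 after a 30 min compound preincubation; ammonia produced over 2 h was quantified by OPA-derived fluorescence. Full inhibition was defined by 50 µM BB-Cl-Amidine, and IC50 came from variable-slope nonlinear regression.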
# T1 sequence (Q9UM07 2-663): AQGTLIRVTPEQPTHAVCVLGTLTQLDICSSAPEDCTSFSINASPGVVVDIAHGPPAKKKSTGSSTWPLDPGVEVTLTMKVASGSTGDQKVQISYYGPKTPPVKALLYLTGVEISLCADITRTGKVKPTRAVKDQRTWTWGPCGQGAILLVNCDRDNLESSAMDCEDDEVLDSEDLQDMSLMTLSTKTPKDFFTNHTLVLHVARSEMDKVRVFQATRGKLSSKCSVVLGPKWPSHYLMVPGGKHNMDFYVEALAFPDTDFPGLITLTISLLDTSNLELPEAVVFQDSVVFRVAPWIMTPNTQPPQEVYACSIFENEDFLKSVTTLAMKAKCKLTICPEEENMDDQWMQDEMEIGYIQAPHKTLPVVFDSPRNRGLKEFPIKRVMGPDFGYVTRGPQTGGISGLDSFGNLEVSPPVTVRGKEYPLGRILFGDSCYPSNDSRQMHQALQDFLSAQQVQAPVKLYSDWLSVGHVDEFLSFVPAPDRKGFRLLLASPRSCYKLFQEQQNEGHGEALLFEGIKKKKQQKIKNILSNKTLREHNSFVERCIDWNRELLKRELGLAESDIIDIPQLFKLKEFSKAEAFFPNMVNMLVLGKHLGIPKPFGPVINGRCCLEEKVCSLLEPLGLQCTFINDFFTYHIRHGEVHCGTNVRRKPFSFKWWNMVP
row,IC50,Compound
1,51 nM,"COc1cc(C(=O)N2CCC[C@@H](N)C2)cc2nc(-c3cc4ccc5nc4n3C[C@H]3C[C@@H]3CCCCC(=O)N[C@@H]5C)n(C)c12 [Example 163, (3~{S},5~{S},12~{R})-18-[5-[(3~{R})-3-aminopiperidine-1-carbonyl]-7-methoxy-1-methyl-benzimidazol-2-yl]-12-methyl-1,11,20-triazatetracyclo[11.5.2.0^{3,5}.0^{16,19}] icosa-13(20),14,16(19),17-tetraen-10-one]"
2,15 nM,"C[C@@H]1[C@H](N)CCCN1C(=O)c1cc(F)c2c(c1)nc(-c1cc3ccc4nc3n1CC(F)(F)CCC[C@@H]1C[C@H]1C(=O)N[C@@H]4C)n2C1CC1 [Example 639, (2~{R},5~{R},7~{R})-14-[5-[(2~{R},3~{R})-3-amino-2-methyl-piperidine-1-carbonyl]-1-cyclopropyl-7-fluoro-benzimidazol-2-yl]-11,11-difluoro-2-methyl-3,13,19-triazatetracyclo[11.5.2.0^ {5,7}.0^{16,20}]icosa-1(19),14,16(20),17-tetraen-4-one]"
3,62 nM,"C[C@H]1NC(=O)c2c(cccc2C(F)F)CCCCCn2c(-c3nc4cc(C(=O)N[C@H]5CNCC[C@@H]5F)c(F)cc4n3C)cc3ccc1nc32 [Example 384, 2-[(2~{R})-6-(difluoromethyl)-2-methyl-4-oxo-3,16,22-triazatetracyclo[14.5.2.0^{5,10}.0^{19,23}]tricosa-1(22),5(10),6,8,17,19(23),20-heptaen-17-yl]-6-fluoro-~{N}-[(3~{S},4~{S})-4-fluoro-3-piperidyl]-1-methyl-benzimidazole-5-carboxamide]"
4,37 nM,"COc1cc(C(=O)N2C[C@H](N)[C@@H]3CC[C@H]2C3)cc2nc(-c3cc4ccc5nc4n3CCCCCC[C@](F)(c3cccc(Cl)n3)C(=O)N[C@@H]5C)n(C)c12 [Example 888, (8~{S},11~{R})-17-[5-[(1~{S},4~{R},5~{R})-4-amino-2-azabicyclo[3.2.1]octane-2-carbonyl]-7-methoxy-1-methyl-benzimidazol-2-yl]-8-(6-chloro-2-pyridyl)-8-fluoro-11-methyl-1,10,19-triazatricyclo[10.5.2.0^ {15,18}]nonadeca-12(19), 13,15(18),16-tetraen-9-one]"
5,81 nM,"COc1cc(C(=O)N2C[C@H](N)[C@@H]3CC[C@H]2C3)cc2nc(-c3cc4ccc5nc4n3CCCC[C@]3(F)C[C@H]3C(=O)N3CCC[C@H]53)n(C)c12 [Example 955, (2~{R},8~{S},10~{S})-16-[5-[(1~{S},4~{R},5~{R})-4-amino-2-azabicyclo[3.2.1]octane-2-carbonyl]-7-methoxy-1-methyl-benzimidazol-2-yl]-10-fluoro-6,15,21-triazapentacyclo [13.5.2.0^{2,6}.0^{8,10}.0^ {18,22}]docosa-1(21),16, 18(22),19-tetraen-7-one]"
6,82 nM,"COc1cc(C(=O)N[C@H]2CNCC[C@@H]2F)cc2nc(-c3cc4ccc5nc4n3C[C@H]3C[C@H]3CCCC(C)(C)C(=O)N[C@@H]5C)n(C)c12 [Example 367, ~{N}-[(3~{S},4~{S})-4-fluoro-3-piperidyl]-7-methoxy-1-methyl-2-[(3~{S},5~{R},12~{R})-9,9,12-trimethyl-10-oxo-1,11,20-triazatetracyclo[11.5.2.0^{3,5}.0^{16,19}]icosa-13(20),14,16(19),17-tetraen-18-yl]benzimidazole-5-carboxamide]"
7,48 nM,"COc1cc(C(=O)N2C[C@H](N)[C@@H]3CC[C@H]2C3)cc2nc(-c3cc4ccc5nc4n3CCCCCc3cccc(F)c3C(=O)N[C@@H]5C)n(C)c12 [Example 902, (2~{R})-17-[5-[(1~{S),4~{R}, 5~{R})-4-amino-2-azabicyclo [3.2.1]octane-2-carbonyl]-7-methoxy-1-methyl-benzimidazol-2-yl]-6-fluoro-2-methyl-3,16,22-triazatetracyclo [14.5.2.0^{5,10}.0^{19,23}] tricosa-1(22),5(10),6,8,17, 19(23),20-heptaen-4-one]"
8,68 nM,"COc1cc(C(=O)N2C[C@H](N)[C@@H]3CC[C@H]2C3)cc2nc(-c3cc4ccc5nc4n3CCCCCc3ccc(F)cc3C(=O)N[C@@H]5C)n(C3CC3)c12 [Example 953, (2~{R})-17-[5-[(1~{S},4~{R}, 5~{R})-4-amino-2-azabicyclo [3.2.1]octane-2-carbonyl]-1-cyclopropyl-7-methoxy-benzimidazol-2-yl]-7-fluoro-2-methyl-3,16,22-triazatetracyclo[14.5.2.0^ {5,10}.0^{19,23}]tricosa-1(22),5(10),6,8,17,19(23), 20-heptaen-4-one]"
9,48 nM,"COc1cc(C(=O)N2[C@H]3CC[C@@H]2[C@H](N)C3)cc2nc(-c3cc4ccc5nc4n3CCCCCCCC(=O)N(C)C5)n(C)c12 [Example 256, 17-[5-[(1~{R},2~{R},4~{S})-2-amino-7-azabicyclo[2.2.1]heptane-7-carbonyl]-7-methoxy-1-methyl-benzimidazol-2-yl]-10-methyl-1,10,19-triazatricyclo[10.5.2.0^{15,18}]nonadeca-12(19),13,15(18),16-tetraen-9-one]"
10,156 nM,"COc1cc(C(=O)N2CC[C@@H](OC)[C@@H](N)C2)cc2nc(-c3cc4ccc5nc4n3C[C@H]3C[C@H]3COCCC(=O)N[C@@H]5C)n(C)c12 [Example 314, (3~{S),5~{R},12~{R})-18-[5-[(3~{S},4~{R})-3-amino-4-methoxy-piperidine-1-carbonyl]-7-methoxy-1-methyl-benzimidazol-2-yl]-12-methyl-7-oxa-1,11,20-triazatetracyclo[11.5.2.0^{3,5}.0^{16,19}] icosa-13(20),14,16(19),17-tetraen-10-one]"
11,71 nM,"COc1cc(C(=O)N2[C@H]3CC[C@@H]2[C@H](N)C3)cc2nc(-c3cc4ccc5nc4n3C[C@H]3CC[C@H]3COCCC(=O)N[C@@H]5C)c(C)n12 [Example 8, (3~{S},6~{R},13~{R})-19-[7-[(1~{R},2~{R},4~{S})-2-amino-7-azabicyclo[2.2.1]heptane-7-carbonyl]-5-methoxy-3-methyl-imidazo[1,2-a]pyridin-2-yl]-13-methyl-8-oxa-1,12,21-triazatetracyclo[12.5.2.0^{3,6}.0^{17,20}] henicosa-14(21),15,17(20),18-tetraen-11-one]"
12,51 nM,"COc1cc(C(=O)N2CC[C@@H](OC)[C@@H](N)C2)cc2nc(-c3cc4ccc5nc4n3CCCCCc3ccccc3C(=O)N(C)[C@@H]5C)n(C)c12 [Example 654, (2~{R})-17-[5-[(3~{S},4~{R})-3-amino-4-methoxy-piperidine-1-carbonyl]-7-methoxy-1-methyl-benzimidazol-2-yl]-2,3-dimethyl-3,16,22-triazatetracyclo[14.5.2.0^ {5,10).0^{19,23}] tricosa-1(22),5,7,9,17,19(23), 20-heptaen-4-one]"
13,119 nM,"COc1cc(C(=O)N[C@H]2CNCC[C@@H]2F)cc2nc(-c3cc4ccc5nc4n3C[C@@H]3[C@@H](CCCC(C)(C)C(=O)N[C@@H]5C)C3(F)F)n(C)c12 (single isomer, unassigned) [Example 365, 2-[(3˜{S},5˜{R},12˜{R})-4,4-difluoro-9,9,12-trimethyl-10-oxo-1,11,20-triazatetracyclo[11.5.2.0^{3,5}.0^{16,19}]icosa-13(20),14,16(19),17-tetraen-18-yl]-˜{N}-[(3˜{S},4˜{S})-4-fluoro-3-piperidyl]-7-methoxy-1-methyl-benzimidazole-5-carboxamide]"
